Key:
[1] = target: Protein Ca (Homo sapiens, UniProt P04070); assay: Chromogenic substrate assay, Ki determination, Protein Ca; format: biochemical; settings: for Ki: substrate S-2366
Method: (§1) The inhibitor (I) constants (Ki) were determined for the inhibition of a series of human enzymes (FXa, thrombin, trypsin, plasmin, protein Ca, streptokinase, tPA, and urokinase) by each compound. Chromogenic substrate assays were performed using a Labsystems IEMS (Cergy Pontoise, France) microtiter plate reader. In each assay, the compound was tested at a minimum of seven concentrations in duplicate to obtain an inhibition curve. Assays were performed according to the following general procedure. In a 96-well microtiter plate, 25 μL of compound, inhibitor solution or buffer was added to 50 μL of substrate. A volume of 25 μL of enzyme solution was added just before the plate was placed in the microtiter plate reader for 1 h at 37 °C. The hydrolysis of the substrate yields p-nitroaniline, which was continuously monitored spectrophotometrically at 405 nm. Data were collected and the initial rate of substrate hydrolysis [Vo (mOD/minute)] was calculated. Following Michaelis-Menten kinetics, the affinity of the enzyme for the substrate, in the absence of the inhibitor (Km) and in the presence of an inhibitor (Kp), was determined to be the negative inverse x-intercept of Lineweaver–Burk plots. The dissociation constant for inhibition (Ki) was calculated using the following equation: Ki = (Km·[I])/(Kp − Km) as described by Williams and Morrison[40].

[2] = target: T1, FXa (Homo sapiens, UniProt P00742); assay: Chromogenic substrate assay, Ki determination, Factor Xa; format: biochemical; settings: for Ki: substrate S-2765 (Table 3), mean ± SD (n = 5)
T1 construct: purchased Haematologic Technologies (Essex Junction, VT, USA)
T1 sequence (P00742 235-488 limits assumed): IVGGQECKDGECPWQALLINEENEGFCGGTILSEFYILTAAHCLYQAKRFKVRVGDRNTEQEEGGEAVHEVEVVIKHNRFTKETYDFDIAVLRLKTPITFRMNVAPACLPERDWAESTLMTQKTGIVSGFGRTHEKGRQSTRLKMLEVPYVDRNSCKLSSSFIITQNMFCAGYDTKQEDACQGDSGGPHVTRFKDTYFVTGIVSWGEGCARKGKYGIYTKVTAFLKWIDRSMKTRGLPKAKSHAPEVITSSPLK
T1 sequence (P00742 41-179 limits assumed): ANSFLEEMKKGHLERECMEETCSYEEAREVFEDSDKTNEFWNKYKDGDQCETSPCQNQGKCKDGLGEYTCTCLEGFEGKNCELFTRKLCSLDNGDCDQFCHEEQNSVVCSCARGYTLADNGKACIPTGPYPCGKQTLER
Method: as §1

[3] = target: Plasmin (Homo sapiens, UniProt P00747); assay: Chromogenic substrate assay, Ki determination, Plasmin; format: biochemical; settings: for Ki: substrate S-2251
Plasmin, sequence (P00747 581-810 limits assumed): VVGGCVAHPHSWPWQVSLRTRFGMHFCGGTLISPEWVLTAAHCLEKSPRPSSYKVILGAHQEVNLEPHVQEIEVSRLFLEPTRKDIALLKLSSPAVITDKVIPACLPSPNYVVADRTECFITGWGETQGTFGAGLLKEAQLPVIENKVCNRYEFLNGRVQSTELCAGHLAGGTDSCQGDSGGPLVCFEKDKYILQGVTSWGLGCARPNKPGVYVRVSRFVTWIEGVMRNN
Plasmin, sequence (P00747 97-580 limits assumed): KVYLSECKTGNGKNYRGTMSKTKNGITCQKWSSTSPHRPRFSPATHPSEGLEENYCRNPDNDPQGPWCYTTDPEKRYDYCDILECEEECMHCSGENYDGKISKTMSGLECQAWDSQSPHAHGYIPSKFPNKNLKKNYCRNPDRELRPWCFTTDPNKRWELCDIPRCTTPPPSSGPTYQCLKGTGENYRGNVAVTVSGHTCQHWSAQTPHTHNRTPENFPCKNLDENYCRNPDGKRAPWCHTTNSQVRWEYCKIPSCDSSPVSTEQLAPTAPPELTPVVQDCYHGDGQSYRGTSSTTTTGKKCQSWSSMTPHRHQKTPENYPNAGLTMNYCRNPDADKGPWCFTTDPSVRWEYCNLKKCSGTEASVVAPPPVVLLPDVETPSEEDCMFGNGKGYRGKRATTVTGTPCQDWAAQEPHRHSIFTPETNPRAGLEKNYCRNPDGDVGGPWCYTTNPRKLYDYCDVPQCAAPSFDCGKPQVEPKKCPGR
Method: as §1

[4] = system: Streptokinase (Homo sapiens); assay: Chromogenic substrate assay, Ki determination, Streptokinase; format: biochemical; settings: for Ki: substrate S-2251
Streptokinase (Homo sapiens), sequence (P00747 581-810 limits assumed): as the sequence (P00747 581-810 limits assumed) above
Method: as §1

[5] = system: Trypsin; assay: Chromogenic substrate assay, Ki determination, Trypsin; format: biochemical, human; settings: for Ki: substrate S-2222
Method: as §1

[6] = target: tPA (Homo sapiens, UniProt P00750); assay: Chromogenic substrate assay, Ki determination, tPA; format: biochemical; settings: for Ki: substrate S-2228
tPA, sequence (P00750 36-562): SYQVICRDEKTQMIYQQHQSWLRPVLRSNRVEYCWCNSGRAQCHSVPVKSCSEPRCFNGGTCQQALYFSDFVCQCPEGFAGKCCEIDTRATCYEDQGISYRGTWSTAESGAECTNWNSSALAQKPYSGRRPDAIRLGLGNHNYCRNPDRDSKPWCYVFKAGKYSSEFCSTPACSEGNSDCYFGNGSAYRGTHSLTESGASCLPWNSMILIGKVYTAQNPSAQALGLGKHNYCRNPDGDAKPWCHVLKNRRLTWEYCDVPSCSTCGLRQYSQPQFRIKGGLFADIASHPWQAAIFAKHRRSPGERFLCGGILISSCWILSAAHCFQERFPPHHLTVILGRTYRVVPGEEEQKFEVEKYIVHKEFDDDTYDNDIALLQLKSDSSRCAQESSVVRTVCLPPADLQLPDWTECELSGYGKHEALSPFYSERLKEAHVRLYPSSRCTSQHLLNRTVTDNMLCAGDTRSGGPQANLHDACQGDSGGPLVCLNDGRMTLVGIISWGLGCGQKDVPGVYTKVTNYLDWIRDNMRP
Method: as §1

[7] = target: T2, α-Thrombin (Homo sapiens, UniProt P00734); assay: Chromogenic substrate assay, Ki determination, α-Thrombin; format: biochemical; settings: for Ki: substrate S-2238
T2 construct: FXa converts prothrombin to thrombin; purchased Haematologic Technologies (Essex Junction, VT, USA)
Method: as §1

[8] = system: C57BL/6 mice; assay: Tail bleeding time; format: in vivo; settings: tail-cutting assay, mean ± SD, n = 10
Method: Figure 4 Effects of compounds 1–4 on clotting and bleeding time. (A) One hour after administration (intravenous injection) of compound 1 (white box), 2 (light gray box), 3 (dark gray box), or 4 (black box), blood was collected from the mice and platelet-poor plasma (PPP) was obtained by centrifugation at 2,000 × g for 10 min at room temperature to test ex vivo activated partial thromboplastin time (aPTT). (B) Each group received a daily intravenous injection of the indicated compound for four consecutive days. Fifteen minutes after the last administration, blood samples were collected and in vivo aPTT was measured. (C) Fifteen minutes after administration of each compound or aspirin (4.5 or 9 mg/kg for 30 min) or the vehicle, tail tips (3 mm long) were cut from each mouse, and the remaining tail was immediately immersed into saline at 37 °C. Accumulated bleeding times (including periods of re-bleeding) were recorded. D = 0.2% DMSO used as the vehicle control. Data are presented as means ± SD of three independent experiments. *p < 0.05 vs. vehicle alone, analyzed by one-way ANOVA, followed by Tukey multiple comparison testing.
To assess bleeding risk incurred by compounds 1–4, we measured bleeding time in mice treated with each compound (up to 30 µM/mouse) by using a tail-cutting assay; the concentration used was three-fold higher than the doses used for the in vivo anti-thrombotic studies. Aspirin-treated mice (9 mg/kg) served as positive controls. […] However, the bleeding time in mice treated with compounds 1–4 was shorter than that observed in mice treated with aspirin ([…], mean ± SD, n = 10). The dose required to avoid thrombus formation and to protect against paralysis or death in mice was determined to be 5 µM per mouse (Fig. 7C).
Tail bleeding times were measured using the method described by Dejana et al.[37]. Briefly, C57BL/6 mice were fasted overnight prior to the experiments. […] after the i.v. administration of each compound, the tails of the mice were transected […] from their tips. Bleeding time was defined as the time elapsed until bleeding stopped. Bleeding times that exceeding 15 min were recorded as 15 min.

[9] = target: T1, FXa; assay: Inhibition of amidolytic activity of FXa toward S-2222 (Michaelis-Menten, Lineweaver-Burk; with or without TFPI); format: biochemical; settings: for type of inhibition of FXa (Lineweaver-Burk plots) / slope of inhibition activity plot: S-2222; for slope of inhibition activity plot: FXa; for Ki: substrate S-2222
Method: To elucidate the mechanisms responsible for inhibition of coagulation and platelet aggregation by compounds 1–4, inhibition of FXa activity was determined using chromogenic substrates. […] We observed a decrease in Vmax, with no effect on the Km of FXa toward S-2222 in the presence of compound 1. […] We also observed a slope of 0.401 for the control without compound 2, and slopes of 0.442 and 0.465 for compound 2 at concentrations of 2 and 5 µM, respectively. […] We observed a decrease in Vmax, with no effect on the Km of FXa toward S-2222 in the presence of compound 2. […] Inhibition activity plots were obtained for different concentrations of compound 3, showing a slope of 0.388 for the control without compound 3, and slopes of 0.408 and 0.464 for compound 3 at concentrations of 2 and 5 µM, respectively. […] We also observed a slope of 0.363 for the control without compound 4, and slopes of 0.376 and 0.398 for compound 4 at concentrations of 2 and 5 µM, respectively. […] We observed a decrease in Vmax, with no effect on the Km of FXa toward S-2222 in the presence of compound 4.
Figure 6 Effects of compounds 1–4 on inhibition and production of FXa. […] The plots represent means of three independent measurements. (E) Human umbilical vein endothelial cells (HUVECs) were pre-incubated with the indicated concentration of each compound for 10 min. HUVECs stimulated with tumor necrosis factor-α (TNF-α, 10 ng/mL for 6 h) were incubated with FVIIa (10 nM) and FX (175 nM) in the absence or presence of anti-TF IgG (25 µg/mL). FXa production was determined as described in the “ Supplementary Materials and Methods” section. D = 0.2% DMSO used as the vehicle control. (F) Inhibition of FXa by each compound (5 μM) with or without TFPI (2 nM) was monitored using a chromogenic assay. ^* p < 0.05 vs. TNF-α alone (E) or each compound (F) alone, analyzed via one-way ANOVA, followed by Tukey multiple comparison testing.
Each compound with or without TFPI was dissolved in 50 mM Tris-HCl buffer (pH 7.4) containing 7.5 mM EDTA and 150 mM NaCl. Following a 2-min incubation at 37 °C, FXa solution (150 μL, 1 U/mL) was added, followed by incubation at 37 °C for 1 min. S-2222 (an FXa substrate, 150 μL, 1.5 mM) solution was subsequently added, and the absorbance at 405 nm was monitored for 20 min using a spectrophotometer (TECAN, Männedorf, Switzerland). The absorbance-time curve and the slope of the curve (Vi) were used to represent the activity of the enzyme. Distilled water served as a control (the slope of curve V0). The inhibitory effect was calculated according to equation (1):1 Inhibitoryrate(%)=(V0−Vi)/V0×100 where V0 represents the slope of the vehicle and Vi represents the slope of the samples.

[10] = target: Urokinase (Homo sapiens, UniProt P00749); assay: Chromogenic substrate assay, Ki determination, Urokinase; format: biochemical; settings: for Ki: substrate S-2444
Method: as §1

Protein Ca, sequence (P04070 212-461 limits assumed): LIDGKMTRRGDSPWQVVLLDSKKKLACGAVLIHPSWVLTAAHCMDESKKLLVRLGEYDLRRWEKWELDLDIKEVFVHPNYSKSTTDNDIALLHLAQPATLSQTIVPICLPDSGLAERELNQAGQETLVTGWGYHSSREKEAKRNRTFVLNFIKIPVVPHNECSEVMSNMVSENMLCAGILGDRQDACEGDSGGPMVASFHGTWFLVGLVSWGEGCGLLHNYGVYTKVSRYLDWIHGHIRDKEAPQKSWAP
Protein Ca, sequence (P04070 43-197 limits assumed): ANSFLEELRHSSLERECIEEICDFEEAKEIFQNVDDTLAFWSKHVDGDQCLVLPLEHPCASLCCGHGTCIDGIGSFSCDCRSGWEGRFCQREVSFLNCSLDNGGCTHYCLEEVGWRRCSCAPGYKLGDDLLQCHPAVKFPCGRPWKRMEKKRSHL

With `CC(=O)NCCc1ccc2c(c1)O[C@@H](NC(C)=O)[C@@H](c1ccc(O)c(O)c1)O2` [Compound 2, (2 R,3 R)-2-(3′,4′-dihydroxyphenyl)-3-acetylamino-6-(N-acetyl-2″-aminoethyl)-1,4-benzodioxane] as the compound, how does the “Ratio = Ki enzyme/Ki Factor Xa, Protein Ca” value [1] read?
Its value is >100.

And the Ki [1]?
Its Ki is > 500 µM.

What about the “Ratio = Ki enzyme/Ki Factor Xa, Factor Xa” value [2] of the same compound?
Its value is 1.

What about the Ki [2] of the same compound?
The Ki was 4.13 ± 0.43 µM.

And the “Ratio = Ki enzyme/Ki Factor Xa, Plasmin” value [3]?
Its value is >100.

And the Ki [3]?
Its Ki is > 500 µM.

What about the “Ratio = Ki enzyme/Ki Factor Xa, Streptokinase” value [4] of the same compound?
Its value is >100.

What about the Ki [4] of the same compound?
Its Ki is > 500 µM.

What about the “Ratio = Ki enzyme/Ki Factor Xa, Trypsin” value [5] of the same compound?
Its value is >100.

What about the Ki [5] of the same compound?
Its Ki is > 500 µM.

And the “Ratio = Ki enzyme/Ki Factor Xa, tPA” value [6]?
Its value is >100.

And the Ki [6]?
Its Ki is > 500 µM.

And the “Ratio = Ki enzyme/Ki Factor Xa, α-Thrombin” value [7]?
Its value is >100.

And the Ki [7]?
The Ki was > 500 µM.

And the bleeding time ([8]; mice treated with 10 µM)?
Its bleeding time is 12.5 ± 1.2 min.

And the bleeding time ([8]; mice treated with 30 µM)?
The bleeding time was 13.5 ± 1.1 min.

What about the “Km of FXa toward S-2222 in the presence of compound” value [9] of the same compound?
Its value is “no effect”.

What about the “Vmax of FXa toward S-2222 in the presence of compound” value [9] of the same compound?
Its value is “decrease”.

What about the “type of inhibition of FXa (Lineweaver-Burk plots)” value [9] of the same compound?
Its value is “noncompetitive inhibition”.

And the “slope of inhibition activity plot” value ([9]; compound at 2 µM)?
Its value is 0.442.

What about the “slope of inhibition activity plot” value ([9]; compound at 5 µM) of the same compound?
Its value is 0.465.

And the Ki [9]?
The Ki was 4.13 µM.

And the “Ratio = Ki enzyme/Ki Factor Xa, Urokinase” value [10]?
The value was >100.

And the Ki [10]?
The Ki was > 500 µM.

Which results are given for `CC(=O)NCCc1ccc2c(c1)O[C@H](NC(C)=O)[C@@H](c1ccc(O)c(O)c1)O2` [Compound 3, (2 R,3 S)-2-(3′,4′-dihydroxyphenyl)-3-acetylamino-6-(N-acetyl-2″-aminoethyl)-1,4-benzodioxane]?
Ratio = Ki enzyme/Ki Factor Xa, Protein Ca [1]: >100; Ki [1]: > 500 µM; Ratio = Ki enzyme/Ki Factor Xa, Factor Xa [2]: 1; Ki [2]: 4.45 ± 0.37 µM; Ratio = Ki enzyme/Ki Factor Xa, Plasmin [3]: >100; Ki [3]: > 500 µM; Ratio = Ki enzyme/Ki Factor Xa, Streptokinase [4]: >100; Ki [4]: > 500 µM; Ratio = Ki enzyme/Ki Factor Xa, Trypsin [5]: >100; Ki [5]: > 500 µM; Ratio = Ki enzyme/Ki Factor Xa, tPA [6]: >100; Ki [6]: > 500 µM; Ratio = Ki enzyme/Ki Factor Xa, α-Thrombin [7]: >100; Ki [7]: > 500 µM; bleeding time ([8]; mice treated with 10 µM): 12.1 ± 1.1 min; bleeding time ([8]; mice treated with 30 µM): 12.3 ± 1.3 min; Km of FXa toward S-2222 in the presence of compound [9]: no effect; Vmax of FXa toward S-2222 in the presence of compound [9]: decrease; type of inhibition of FXa (Lineweaver-Burk plots) [9]: noncompetitive inhibition; slope of inhibition activity plot ([9]; compound at 2 µM): 0.408; slope of inhibition activity plot ([9]; compound at 5 µM): 0.464; Ki [9]: 4.45 µM; Ratio = Ki enzyme/Ki Factor Xa, Urokinase [10]: >100; Ki [10]: > 500 µM

`CC(=O)NCCc1ccc2c(c1)O[C@H](c1ccc(O)c(O)c1)[C@@H](NC(C)=O)O2` [Compound 4, (2 R,3 S)-2-(3′,4′-dihydroxyphenyl)-3-acetylamino-7-(N-acetyl-2″-aminoethyl)-1,4-benzodioxane] was tested. Which “Ratio = Ki enzyme/Ki Factor Xa, Protein Ca” value [1] did it give?
The value was >100.

What about the Ki [1] of the same compound?
Its Ki is > 500 µM.

What about the “Ratio = Ki enzyme/Ki Factor Xa, Factor Xa” value [2] of the same compound?
The value was 1.

And the Ki [2]?
The Ki was 4.72 ± 0.31 µM.

What about the “Ratio = Ki enzyme/Ki Factor Xa, Plasmin” value [3] of the same compound?
The value was >100.

And the Ki [3]?
The Ki was > 500 µM.

What about the “Ratio = Ki enzyme/Ki Factor Xa, Streptokinase” value [4] of the same compound?
The value was >100.

And the Ki [4]?
Its Ki is > 500 µM.

And the “Ratio = Ki enzyme/Ki Factor Xa, Trypsin” value [5]?
Its value is >100.

And the Ki [5]?
The Ki was > 500 µM.

What about the “Ratio = Ki enzyme/Ki Factor Xa, tPA” value [6] of the same compound?
Its value is >100.

What about the Ki [6] of the same compound?
Its Ki is > 500 µM.

And the “Ratio = Ki enzyme/Ki Factor Xa, α-Thrombin” value [7]?
Its value is >100.

And the Ki [7]?
The Ki was > 500 µM.

And the “Km of FXa toward S-2222 in the presence of compound” value [9]?
Its value is “no effect”.

And the “Vmax of FXa toward S-2222 in the presence of compound” value [9]?
The value was “decrease”.

What about the “type of inhibition of FXa (Lineweaver-Burk plots)” value [9] of the same compound?
The value was “noncompetitive inhibition”.

And the “slope of inhibition activity plot” value ([9]; compound at 2 µM)?
The value was 0.376.

And the “slope of inhibition activity plot” value ([9]; compound at 5 µM)?
The value was 0.398.

And the Ki [9]?
Its Ki is 4.72 µM.

And the “Ratio = Ki enzyme/Ki Factor Xa, Urokinase” value [10]?
The value was >100.

What about the Ki [10] of the same compound?
Its Ki is > 500 µM.

From PMC5554137, “Evaluation of novel factor Xa inhibitors from Oxya chinensis sinuosa with anti-platelet aggregation activity” (Scientific Reports, 2017)
